# In publication PMC11943507 (Marine Drugs, 2025):
# “And” between values parts separate entries of the source, which are not always exact repeats. Equal entries are not always repeated. “Also recorded” adds a separate entry of the source. Where two headings read alike, the source gives them in different places.
# Tests used:
# [1] = molecular target: T1, hNav1.1 (Homo sapiens, UniProt P35498); test: cell-based; type: cell-based
# [2] = molecular target: T1, hNav1.1; type: cell-based
# [3] = molecular target: T1, hNav1.1; type: cell-based; remark: listed apart in the source
# [4] = molecular target: T1, hNav1.1; type: cell-based; remark: listed apart in the source
# [5] = molecular target: T1, hNav1.1
# [6] = test system: Nav1.1; settings: cited from earlier work
# [7] = test system: Nav1.7; settings: cited from earlier work
# [8] = test system: Nav1.6; settings: cited from earlier work
smiles,measurement,setting,value
"C=C1[C@@H](O)[C@@H]2O[C@]3(CC[C@H](/C=C/[C@@H](C)[C@@H]4CC(C)=C[C@@]5(O[C@H](C[C@@](C)(O)C(=O)O)CC[C@H]5O)O4)O3)CC[C@H]2O[C@@H]1[C@@H](O)C[C@H](C)[C@H]1O[C@@]2(CC[C@H]1C)OCCC[C@H]2C [DTX1, dinophysistoxin 1]",fluorescence signal in agonist mode concentration-response,[1],no significant increase
same,inhibitory effect in initial screening,[2],no significant inhibition; also recorded: did not exhibit any potential agonist or inhibitor activity
same,"fluorescence intensity stimulated by 30 μM veratridine, inhibition mode concentration-response",[3],not significantly inhibited
same,agonist activity in initial screening,[4],did not exhibit any potential agonist or inhibitor activity
"NC1=N[C@H](O)[C@H]2[C@H]3O[C@]4(O)O[C@@H]([C@@H](O)[C@@]2(N1)[C@@H]4O)[C@]3(O)CO [TTX, tetrodotoxin]",suppression of hNav1.1 current signal,[5],almost completely suppressed
same,IC50,[5]; read-out: IC50 determined by patch clamp,0.00327 µM and ~0.00327 µM
same,IC50,[3],0.0184 µM
same,inhibition of the channel-opening effect of 30 μM veratridine,[3],almost completely inhibited
COc1ccc(C(=O)O[C@H]2CC[C@@]3(C)[C@@H]4CC[C@H]5[C@]6(O)C[C@H](O)[C@@]7(O)[C@@H](CN8C[C@@H](C)CC[C@H]8[C@@]7(C)O)[C@]6(O)C[C@@]53O[C@]24O)cc1OC [veratridine],fluorescence signal relative to the maximum fluorescence signal,[1],approximately 80%
same,EC50,[1]; EC50,~24 µM and 24 µM
same,EC50,"[7]; read-out: EC50, tail and sustained currents",9.53 µM
same,IC50,"[7]; read-out: IC50, inhibitory effect on the peak current",18.4 µM
same,peak amplitude of the sodium current,[8],enhanced
same,peak current,[8],suppressed
